The NIST ThermoML archive (doi:10.1021/je049778g)
Numbers after ± are expanded uncertainties.

Details: Liquid; for mass density: 298.15 K, 101.33 kPa

| mass density [kg/m3] | Normal boiling temperature [°C] | SMILES |
| --- | --- | --- |
| 785.1 ± 0.3 | 78.31 ± 0.03 | CCO [ethanol] |
| 786.5 ± 0.3 | 64.52 ± 0.03 | CO [methanol] |
| 799.5 ± 0.2 | 97.04 ± 0.03 | CCCO [propan-1-ol] |
| 780.8 ± 0.3 | 82.26 ± 0.03 | CC(C)O [propan-2-ol] |
